Measurements as given in ChEMBL document CHEMBL1137264, “Carbonic anhydrase inhibitors. Inhibition of the cytosolic human isozymes I and II, and the transmembrane, tumor-associated isozymes IX and XII with substituted aromatic sulfonamides activatable in hypoxic tumors” (Bioorg Med Chem Lett, 2006).
“And” between values parts separate entries of the source, which are not always exact repeats. Equal values may be shown once.

Legend:
Carbonic anhydrase 1 = Carbonic anhydrase 1 (Homo sapiens, UniProt P00915)
Carbonic anhydrase 1, sequence (P00915 whole entry): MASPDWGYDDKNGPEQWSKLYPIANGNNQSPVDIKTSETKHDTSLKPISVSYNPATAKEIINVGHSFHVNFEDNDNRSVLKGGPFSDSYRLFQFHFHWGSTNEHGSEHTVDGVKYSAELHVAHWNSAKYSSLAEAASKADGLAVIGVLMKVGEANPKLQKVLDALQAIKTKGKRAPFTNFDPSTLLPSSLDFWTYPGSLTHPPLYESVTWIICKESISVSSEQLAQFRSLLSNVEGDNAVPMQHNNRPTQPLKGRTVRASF
Description: Inhibition of human cloned CA1 by CO2 hydration assay

Carbonic anhydrase 9 = Carbonic anhydrase 9 (Homo sapiens, UniProt Q16790)
Description: Inhibition of human cloned CA9 catalytic domain by CO2 hydration assay

Carbonic anhydrase 2 = Carbonic anhydrase 2 (Homo sapiens, UniProt P00918)
Description: Inhibition of human cloned CA2 by CO2 hydration assay

Carbonic anhydrase 12 = Carbonic anhydrase 12 (Homo sapiens, UniProt O43570)
Carbonic anhydrase 12, sequence (O43570 whole entry): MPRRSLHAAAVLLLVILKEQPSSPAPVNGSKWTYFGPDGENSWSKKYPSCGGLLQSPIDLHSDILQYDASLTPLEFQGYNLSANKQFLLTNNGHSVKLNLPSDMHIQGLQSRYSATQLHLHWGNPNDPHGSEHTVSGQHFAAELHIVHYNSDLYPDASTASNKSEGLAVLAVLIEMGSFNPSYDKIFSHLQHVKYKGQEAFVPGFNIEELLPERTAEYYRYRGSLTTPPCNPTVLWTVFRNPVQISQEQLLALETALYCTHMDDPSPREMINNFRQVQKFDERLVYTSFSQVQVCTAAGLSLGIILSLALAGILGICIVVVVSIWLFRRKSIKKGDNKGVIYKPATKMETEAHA
Description: Inhibition of human cloned CA12 catalytic domain by CO2 hydration assay

Compound | Ki (Carbonic anhydrase 1) | Ki (Carbonic anhydrase 9) | Ki (Carbonic anhydrase 2) | Ki (Carbonic anhydrase 12)
Cc1cc(S(N)(=O)=O)c(S(=O)(=O)C(C)C(=O)O)cc1Cl (stereo unspecified) | 27.3 µM | 5 µM | 0.806 µM | 3.05 µM
Cc1cc(S(N)(=O)=O)c(S(=O)(=O)C(C)C(=O)NN)cc1Cl (stereo unspecified) | 14.2 µM | 3.42 µM | 0.536 µM | 2.42 µM
NS(=O)(=O)c1cc(C(=O)NCc2ccccc2)c(Cl)cc1SSc1cc(Cl)c(C(=O)NCc2ccccc2)cc1S(N)(=O)=O | 82.1 µM | > 10 µM | 6.1 µM | > 10 µM
Cc1cc(S(N)(=O)=O)c(S/C(=N\NS(=O)(=O)c2ccccc2)c2ccccc2)cc1Cl | 113 µM | > 10 µM | > 10 µM | > 10 µM
CC/C(=N/Nc1ccc([N+](=O)[O-])cc1)Sc1cc(Cl)c(C)cc1S(N)(=O)=O | 220 µM | > 10 µM | > 10 µM | > 10 µM
Cc1cc(S(N)(=O)=O)c(S(=O)(=O)CC(=O)O)cc1Cl | 11.6 µM | 5.44 µM | 0.547 µM | 2.4 µM
CC(C)CSc1cc2c(cc1S(N)(=O)=O)S(=O)(=O)NCN2 | 392 µM | > 10 µM | 2.68 µM | 1 µM
Cc1cc(S(N)(=O)=O)c(S/C(=N\Nc2ccc([N+](=O)[O-])cc2)c2ccccc2)cc1Cl | 379 µM | > 10 µM | > 10 µM | > 10 µM
NS(=O)(=O)c1cc(C(=O)N2CCCC2)c(Cl)cc1SSc1cc(Cl)c(C(=O)N2CCCC2)cc1S(N)(=O)=O | 22.1 µM | 0.766 µM | 4.62 µM | 0.19 µM
NS(=O)(=O)c1cc2c(cc1SSc1cc3c(cc1S(N)(=O)=O)S(=O)(=O)NCN3)NCNS2(=O)=O | 310 µM | 0.78 µM | > 10 µM | 1.97 µM
NS(=O)(=O)c1cc2c(cc1S)NCNS2(=O)=O | 7.5 µM and 7.3 µM | 0.113 µM and 0.115 µM | 0.0086 µM and 0.0087 µM | 0.117 µM and 0.118 µM
NS(=O)(=O)c1cc(C(=O)NCc2ccccc2)c(Cl)cc1S | 19.7 µM | 0.0409 µM | 0.0199 µM | 0.0356 µM

Now from value to compound:

Ki (Carbonic anhydrase 1) | Ki (Carbonic anhydrase 9) | Ki (Carbonic anhydrase 2) | Ki (Carbonic anhydrase 12) | Compound
5.1 µM | 1.84 µM | 0.0096 µM | 1.35 µM | COC(=O)CS(=O)(=O)c1cc(Cl)c(C)cc1S(N)(=O)=O
5.8 µM | 1.61 µM | 0.244 µM | 1.1 µM | COC(=O)C(C)S(=O)(=O)c1cc(Cl)c(C)cc1S(N)(=O)=O (stereo unspecified)
7.7 µM | 1.44 µM | 0.0092 µM | 1.39 µM | Cc1cc(S(N)(=O)=O)c(S(=O)(=O)CC(=O)NN)cc1Cl
2.6 µM | 0.0145 µM | 0.0196 µM | 0.02 µM | NS(=O)(=O)c1cc(C(=O)N2CCCC2)c(Cl)cc1S
7.8 µM | > 10 µM | 5.57 µM | > 10 µM | CCOC(=O)c1cc(S(N)(=O)=O)c(SSc2cc(Cl)c(C(=O)OCC)cc2S(N)(=O)=O)cc1Cl
6.4 µM | 0.056 µM | 0.0185 µM | 0.053 µM | CCOC(=O)c1cc(S(N)(=O)=O)c(S)cc1Cl
10.9 µM | 0.139 µM | 3.8 µM | 0.108 µM | CSc1cc2c(cc1S(N)(=O)=O)S(=O)(=O)NCN2
